Measurements: patent US20220326125A1, “BIOLOGICAL TISSUE STAINING REAGENT, BIOLOGICAL TISSUE STAINING KIT AND BIOLOGICAL TISSUE STAINING METHOD” (CUBICStars, Inc., priority 2019, published 2022)

Legend:
[1] = system: defatted column of the cerebral cortex area of pig brain; assay: Evaluation of antibody penetration efficiency (peak-bottom ratio), anti-synaptophysin antibody; conditions: 2.5% by weight in Immunostaining Buffer E vs distilled water, 32° C., 1 day
Experimental: After the defatting treatment, the sample was washed with PBS, and soaked in Immunostaining Buffer E that was mixed with a mouse monoclonal anti-synaptophysin antibody (manufactured by Medical & Biological Laboratories Co., Ltd.; #D073-3; 20 μg/mL) and Fab-anti-mouse IgG1 labeled with Alexa 594 (added such that the weight ratio to the anti-synaptophysin antibody was about 1:1) and further supplemented with 2.5% by weight Quadrol or the same amount of distilled water. The sample was stained at 32° C. for 1 day. After the staining, the sample was washed with PB-Triton and PB, and a frozen section in the central portion of the sample was prepared.
FIGS. 18A and B show images of the frozen sections of the samples stained with Immunostaining Buffer E to which distilled water or Quadrol, respectively, was added. […] For quantification, a representative area showing almost uniform staining of the left and right sides of the column was selected using a micrographic image, and a brightness-value graph was prepared. In the graph, the ratio (peak-bottom ratio) of the maximum brightness (peak) in the left and right to the minimum brightness (bottom) in the sample was high in the sample to which Quadrol was not added. […] Thus, using the peak-bottom ratio as a quantitative index of penetrability of an antibody into a tissue, a search was carried out for compounds as follows. […]

[2] = system: defatted mouse cerebral hemisphere; assay: 3D immunostaining with combinations of additives; conditions: Immunostaining Buffer E; antibodies against synaptophysin, Gad67, Dat or Th; 32° C., 3 to 4 days
Text: Fab-anti-mouse or rabbit IgG against each primary antibody, labeled with Alexa 594 (manufactured by Jackson ImmunoResearch laboratories; Fab-anti-mouse IgG1-[…] (#115-587-185), Fab-anti-mouse IgG2a-[…] (#115-587-186), or Fab-anti-rabbit IgG-[…] (#111-587-008), added such that the weight ratio to each primary antibody was about 1:0.75); and predetermined concentrations of additives (two or three selected from #0854, #1086, and #0609 described in FIG. 1A and #0146 described in FIG. 1B).

Compound	penetration of the antibody [1]	penetration-promoting effect for the antibodies / staining performance inside the sample [2]
CC(O)CN(CCN(CC(C)O)CC(C)O)CC(C)O (centres unmarked) [Quadrol, N,N,N′,N′-tetrakis(2-hydroxypropyl)ethylenediamine]	penetration of the antibody was effectively increased	
CN(C)CCOCCO [#0146, 2-[2-(Dimethylamino)ethoxy]ethanol]		even stronger penetration-promoting effect
